In patent US20240287063A1, “METHIONINE ADENOSYLTRANSFERASE 2A INHIBITOR” (NANJING CHIA TAI TIANQING PHARMACEUTICAL CO., LTD., priority 2021, published 2024):
Counter-ions that a name gives are not always drawn.

What was measured:
MAT2A enzyme = molecular target: T1, MAT2A enzyme (Homo sapiens, UniProt P31153); assay: Enzymatic testing method for MAT2A (Biomol Green, OD620); format: biochemical; conditions: score by IC50 for inhibiting MAT2A; read-out: MAT2A inhibition score
T1 construct: purchased BPS 71401
Description: • a) A 5×MAT2A test buffer (250 mM Tris-HCl, pH 8.0; 250 mM KCl; 75 mM MgCl2; 0.025% BSA; 0.05% Brij35; 1.5 mM EDTA) was first prepared and partially diluted to 1× for later use; • b) Preparation and addition of MAT2A enzyme (BPS, 71401): the MAT2A enzyme was prepared into 3.674 ng/L by using the 1×MAT2A test buffer (1.67×, final concentration 2.20 ng/L), a BioTek (MultiFlo FX) automatic liquid separator was used, 15 μL of 1.67×MAT2A enzyme solution was added to compound test wells and negative control wells respectively, and 15 μL of 1×MAT2A test buffer was added to blank control wells; • c) Preparation and addition of a compound: a compound to be tested was diluted with DMSO from 10 mM stock solution to 100 μM, a positive drug AGI-24512 was diluted under the same conditions, and the diluted compound and positive drug were automatically sprayed into each well by using a Tecan compound titrator (D300e) according to preset concentration gradients, where the spray volume was little and negligible. The concentration gradient was initially 1 μM, the dilution was implemented by ½ log, and a total of 8 gradients were set. Centrifugation at 2500 rpm for 30 s and incubation at 25° C. for 30 min were performed; • d) Preparation of ATP: 10 mM ATP (Sigma, A7699) was diluted with 1×MAT2A test buffer to 700 μM for later use; • e) Preparation and addition of a substrate and ATP mixture: 5×MAT2A test buffer, 3 μL/well; 750 μM L-methionine (Adamas, 01100469), 2.5 μL/well; 700 μM ATP, 2.5 μL/well; and double distilled water, 2 μL/well. A total amount of required mixture was prepared according to the number of test wells, and 10 μL of the mixture was added to each well by using the BioTek (MultiFlo FX) automatic liquid separator, followed by centrifugation at 2500 rpm for 30 s and reaction at 25° C. for 150 min; • f) Addition of Biomol Green detection reagent: 50 μL of Biomol Green (Enzo, BML-AK111) was added to each well by using the BioTek (MultiFlo FX) automatic liquid separator, followed by centrifugation at 2500 rpm for 30 s and incubation at 25° C. for 20 minutes; • g) After the reaction, OD620 values were read by using a Perkin Elmer (Envision 2105) multifunctional plate reader.
A formula for calculating an inhibition rate was as follows: […]
Wherein, • % Inhibition: inhibition rate % • ODsample: OD620 value in a sample well; • ODmin: representing a mean OD620 value of blank control wells without the enzyme or compound to be tested; • ODmax: representing a mean OD620 value of negative control wells with the enzyme and without the compound.
Then a dose-effect curve log(inhibitor) vs. response-Variable slope was fitted by usingGraphPad Prism 5 software to obtain an IC50 value of compound for MAT2A enzyme inhibition.

HCT116 MTAP −/− cells = assay: Cell testing method: HCT116 MTAP-/- cell proliferation inhibition (CellTiter-Glo, 120 h); format: cell-based; conditions: Homo sapiens, HCT-116; score by IC50 for inhibiting HCT116 MTAP−/− cells
Description: HCT116 MTAP −/− cells (purchased from Horizon Discovery): human colorectal cancer cell lines with MTAP gene deletion were cultured in medium RPMI 1640+10% FBS (Fetal bovine serum). On day 0 of the experiment, the live cell density of the foregoing cells in logarithmic growth phase was adjusted to 5000 cells/ml, the cells were inoculated to a 96-well plate by an amount of 100 μl/well, and a blank group was set in parallel; and the inoculated cell plate was put into a 37° C., 5% CO2 incubator for overnight culture.
On day 1 of the experiment, the overnight cultured cell plate was taken out, the supernatant was discarded, 80 μl of serum-free RPMI 1640 medium was added to each well, and place the cells in an incubator for starvation cultivation for 4 h. The compound to be tested was dissolved in DMSO (dimethyl sulfoxide) to prepare a 10 mM compound stock solution. After starvation, the cell plate was taken out, and 80 μl of RPMI 1640+20% FBS medium was added to each well; the cell plate was placed on an automatic liquid dispenser D300e (Tecan), and a dosing program was set as follows: a maximum concentration of the compound to be tested was 30 μM, the compound was diluted with DMSO by a 3 times concentration gradient, there was a total of 10 concentrations, two duplicate wells were set for each concentration, and the DMSO final concentration in each well of the 96-well plate was 0.3%, v/v. The pre-prepared 10 mM stock solution of the compound to be tested was taken out, and the above dosing program was run for dosing. After the dosing was completed, the cell plate was placed in incubator and culture for 120 h.
On day 6 of the experiment, the cell plate was taken out, 50 μl of CellTiter-Go® (purchased from Promega) was added to each well, and fluorescence signal was measured on Envision (PerkinElmer) according to operation procedures in the manual.
A dose-effect curve: log(inhibitor) vs. response-Variable slope was fitted by using GraphPad Prism 5 software to obtain an IC50 value of the compound for inhibiting cell proliferation inhibition. A formula for calculating an inhibition rate was: […]
Wherein, • Signal value of tested compound: mean fluorescence signal of cells group+medium group+compound group; • Signal value of blank group: mean fluorescence signal of medium group; • Signal value of negative control group: mean fluorescence signal of cells group+medium group.

T1 sequence (P31153 whole entry): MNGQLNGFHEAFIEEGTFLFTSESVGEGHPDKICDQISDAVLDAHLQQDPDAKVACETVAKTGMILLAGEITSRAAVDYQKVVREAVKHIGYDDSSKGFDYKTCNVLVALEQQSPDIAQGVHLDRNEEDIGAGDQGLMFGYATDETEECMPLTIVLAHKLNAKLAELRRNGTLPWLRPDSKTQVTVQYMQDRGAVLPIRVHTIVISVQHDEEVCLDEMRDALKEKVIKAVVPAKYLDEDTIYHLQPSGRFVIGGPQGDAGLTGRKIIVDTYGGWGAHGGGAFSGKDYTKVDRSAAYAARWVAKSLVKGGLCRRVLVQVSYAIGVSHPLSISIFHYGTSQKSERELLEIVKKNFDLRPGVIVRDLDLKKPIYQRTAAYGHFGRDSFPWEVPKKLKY

| SMILES | IC50 (MAT2A enzyme) | IC50 (HCT116 MTAP −/− cells) |
| --- | --- | --- |
| O=c1c(-c2ccc3c(c2)OCO3)cn2ccc(C3CC3)nc2c1-c1ccc2c(c1)OCO2 [Example 28, 7,9-bis(2H-1,3-benzodioxol-5-yl)-2-cyclopropyl-8H-pyrido[1,2-a]pyrimidin-8-one] | < 0.05 µM | < 0.15 µM |
| Cn1cc2cc(-c3cn4ccc(NCC(F)(F)F)nc4c(-c4ccc5c(c4)OC(F)(F)O5)c3=O)ccc2n1 [Example 20, 9-(2,2-difluoro-1,3-benzodioxol-5-yl)-7-(2-methyl-2H-indazol-5-yl)-2-[(2,2,2-trifluoroethyl)amino]-8H-pyrido[1,2-a]pyrimidin-8-one] | < 0.05 µM | < 0.15 µM |
| O=c1c(-c2ccc(OC(F)F)cc2)cn2ccc(OCC(F)(F)F)nc2c1-c1ccc(OC(F)F)cc1 [Example 24, 7,9-bis[4-(difluoromethoxy)phenyl]-2-(2,2,2-trifluoroethoxy)-8H-pyrido[1,2-a]pyrimidin-8-one] | < 0.05 µM | < 0.15 µM |
| Cn1cc2cc(-c3cn4ccc(C5CC5)nc4c(-c4ccc5c(c4)OC(F)(F)O5)c3=O)ccc2n1 [Example 26, 2-cyclopropyl-9-(2,2-difluoro-1,3-benzodioxol-5-yl)-7-(2-methyl-2H-indazol-5-yl)-8H-pyrido[1,2-a]pyrimidin-8-one] | < 0.05 µM | < 0.15 µM |
| COc1ccc(-c2cn3ccc(NCC(F)(F)F)nc3c(-c3ccc(OC)cc3)c2=O)cc1 [Example 11, 7,9-bis[(4-methoxyphenyl)]-2-[(2,2,2-trifluoroethyl)amino]-8H-pyrido[1,2-a]pyrimidin-8-one] | < 0.05 µM | < 0.15 µM |
| O=C1Cn2nc3ccc(-c4cn5ccc(NCC(F)(F)F)nc5c(-c5ccc(OC(F)F)cc5)c4=O)cc3c2C2(CC2)N1 [Example 16, 9′-{9-[4-(difluoromethoxy)phenyl]-8-oxo-2-[(2,2,2-trifluoroethyl)amino]pyrido[1,2-a]pyrimidin-7-yl}-2′,4′-dihydrospiro[cyclopropane-1,1′-pyrazino[1,2-b]indazol]-3′-one] | < 0.05 µM | 0.4 to 1 µM |
| Cc1cc(NCC(F)(F)F)nc2c(-c3ccc(OC(F)F)cc3)c(=O)c(-c3ccc(OC(F)F)cc3)cn12 [Example 41, 7,9-bis(4-(difluoromethoxy)phenyl)-4-methyl-2-((2,2,2-trifluoroethyl)amino)-8H-pyrido[1,2-a]pyrimidin-8-one] | < 0.05 µM | < 0.15 µM |
| Cc1cn2cc(-c3ccc(OC(F)F)cc3)c(=O)c(-c3ccc(OC(F)F)cc3)c2nc1NCC(F)(F)F [Example 42, 7,9-bis(4-(difluoromethoxy)phenyl)-3-methyl-2-((2,2,2-trifluoroethyl)amino)-8H-pyrido[1,2-a]pyrimidin-8-one] | < 0.05 µM | 0.15 to 0.4 µM |
| O=c1c(-c2ccc(OC(F)F)cc2)cn2ccc(C3CC3)cc2c1-c1ccc(OC(F)F)cc1 [Example 3, 8-cyclopropyl-1,3-bis(4-(difluoromethoxy)phenyl)-2H-quinolizin-2-one] | < 0.05 µM | < 0.15 µM |
| Cn1nc2ccc(-c3cn4ccc(C5CC5)cc4c(-c4ccc5c(c4)OC(F)(F)O5)c3=O)cc2c1N [Example 6, 3-(3-amino-2-methyl-2H-indazol-5-yl)-8-cyclopropyl-1-(2,2-difluoro-1,3-benzodioxol-5-yl) quinolizin-2-one hydrochloride] | < 0.05 µM | 0.15 to 0.4 µM |
| Cn1nccc1-c1c2cc(-c3cn4ccc(C5CC5)cc4c(-c4ccc5c(c4)OC(F)(F)O5)c3=O)ccc2nn1C [Example 7, 8-cyclopropyl-1-(2,2-difluoro-1,3-benzodioxol-5-yl)-3-[2-methyl-3-(2-methylpyrazol-3-yl)indazol-5-yl]quinolizin-2-one] | < 0.05 µM | 0.4 to 1 µM |

Further lines, results first:

| IC50 (MAT2A enzyme) | IC50 (HCT116 MTAP −/− cells) | SMILES |
| --- | --- | --- |
| < 0.05 µM | < 0.15 µM | Cn1cc2cc(-c3cn4ccc(NCC(F)(F)F)nc4c(-c4ccc(OC(F)F)cc4)c3=O)ccc2n1 [Example 9, 9-[4-(difluoromethoxy)phenyl]-7-(2-methyl-2H-indazol-5-yl)-2-[(2,2,2-trifluoroethyl)amino]-8H-pyrido[1,2-a]pyrimidin-8-one] |
| < 0.05 µM | < 0.15 µM | O=c1c(-c2ccc(OC(F)F)cc2)cn2ccc(NCC(F)(F)F)nc2c1-c1ccc(OC(F)F)cc1 [Example 10, 7,9-bis[4-(difluoromethoxy)phenyl]-2-[(2,2,2-trifluoroethyl)amino]-8H-pyrido[1,2-a]pyrimidin-8-one] |
| 0.05 to 0.2 µM | > 1 µM | O=c1c(-c2ccc(OC(F)F)cc2)cn2ccc(C3CC3)nc2c1-c1ccc2c(c1)OC(F)(F)O2 [Example 27, 2-cyclopropyl-9-(2,2-difluoro-1,3-benzodioxol-5-yl)-7-[4-(difluoromethoxy)phenyl]-8H-pyrido[1,2-a]pyrimidin-8-one] |
| < 0.05 µM | < 0.15 µM | CN1Cc2c3cc(-c4cn5ccc(C6CC6)nc5c(-c5ccc(OC(F)F)cc5)c4=O)ccc3nn2CC12CC2 [Example 38, 2-cyclopropyl-9-(4-(difluoromethoxy)phenyl)-7-(2′-methyl-1′,2′-dihydro-4′H-spiro[cyclopropane-1,3′-pyrazino[1,2-b]indazol]-9′-yl)-8H-pyrido[1,2-a]pyrimidin-8-one] |
| < 0.05 µM | < 0.15 µM | CCOc1ccn2cc(-c3ccc(OC(F)F)cc3)c(=O)c(-c3ccc(OC(F)F)cc3)c2c1 [Example 4] |
| < 0.05 µM | 0.4 to 1 µM | CN1C(=O)c2c3cc(-c4cn5ccc(NCC(F)(F)F)nc5c(-c5ccc(OC(F)F)cc5)c4=O)ccc3nn2CC12CC2 [Example 15, 9′-{9-[4-(difluoromethoxy)phenyl]-8-oxo-2-[(2,2,2-trifluoroethyl)amino]pyrido[1,2-a]pyrimidin-7-yl}-2′-methyl-4′H-spiro[cyclopropane-1,3′-pyrazino[1,2-b]indazol]-1′-one] |
| < 0.05 µM | < 0.15 µM | O=c1c(-c2ccc3c(c2)OCO3)cn2ccc(C3CC3)nc2c1-c1ccc2c(c1)OC(F)(F)O2 [Example 32, 7-(2H-1,3-benzodioxol-5-yl)-2-cyclopropyl-9-(2,2-difluoro-1,3-benzodioxol-5-yl)pyrido[1,2-a]pyrimidin-8-one] |
| < 0.05 µM | < 0.15 µM | O=c1c(-c2ccc3nn4c(c3c2)CNC2(CC2)C4)cn2ccc(C3CC3)nc2c1-c1ccc(OC(F)F)cc1 [Example 39, 2-cyclopropyl-9-(4-(difluoromethoxy)phenyl)-7-(1′,2′-dihydro-4′H-spiro[cyclopropane-1,3′-pyrazino[1,2-b]indazol]-9′-yl)-8H-pyrido[1,2-a]pyrimidin-8-one] |
